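Cells were grown in 96-well plates and exposed to each compound for 48 hours at five concentrations; endpoints were interpolated linearly between bracketing concentrations, or set to the highest concentration if not reached. At the GI50, growth is halved. TGI: total growth inhibition.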
Legend:
Test in all cases: NCI anticancer screen, dose series, 48 h
HCT-15 colon = tested on: HCT-15 colon
CAKI-1 renal = tested on: CAKI-1 renal
NCI-H226 lung = tested on: NCI-H226 lung
DU-145 prostate = tested on: DU-145 prostate
MDA-MB-231 breast = tested on: MDA-MB-231 breast
SF-295 CNS = tested on: SF-295 CNS
SK-MEL-2 melanoma = tested on: SK-MEL-2 melanoma
RXF 393 renal = tested on: RXF 393 renal
MCF7 breast = tested on: MCF7 breast
U251 CNS = tested on: U251 CNS
SNB-19 CNS = tested on: SNB-19 CNS
OVCAR-4 ovarian = tested on: OVCAR-4 ovarian
NCI-H522 lung = tested on: NCI-H522 lung
PC-3 prostate = tested on: PC-3 prostate
OVCAR-3 ovarian = tested on: OVCAR-3 ovarian
NCI/ADR-RES ovarian = tested on: NCI/ADR-RES ovarian
HT29 colon = tested on: HT29 colon
MDA-MB-435 = tested on: MDA-MB-435
A498 renal = tested on: A498 renal
HL-60(TB) leukemia = tested on: HL-60(TB) leukemia
LOX IMVI melanoma = tested on: LOX IMVI melanoma
MOLT-4 leukemia = tested on: MOLT-4 leukemia
K-562 leukemia = tested on: K-562 leukemia
TK-10 renal = tested on: TK-10 renal
SF-268 CNS = tested on: SF-268 CNS
NCI-H460 lung = tested on: NCI-H460 lung
HCC-2998 colon = tested on: HCC-2998 colon
BT-549 breast = tested on: BT-549 breast
SR leukemia = tested on: SR leukemia
COLO 205 colon = tested on: COLO 205 colon
NCI-H23 lung = tested on: NCI-H23 lung
HOP-62 NSCLC = tested on: HOP-62 NSCLC
ACHN renal = tested on: ACHN renal
CCRF-CEM leukemia = tested on: CCRF-CEM leukemia
OVCAR-8 ovarian = tested on: OVCAR-8 ovarian
SNB-75 CNS = tested on: SNB-75 CNS
UACC-62 melanoma = tested on: UACC-62 melanoma
A549 NSCLC = tested on: A549 NSCLC
SK-MEL-28 melanoma = tested on: SK-MEL-28 melanoma
SK-MEL-5 melanoma = tested on: SK-MEL-5 melanoma
MALME-3M melanoma = tested on: MALME-3M melanoma
786-0 renal = tested on: 786-0 renal
UO-31 renal = tested on: UO-31 renal
IGROV1 ovarian = tested on: IGROV1 ovarian
UACC-257 melanoma = tested on: UACC-257 melanoma
HOP-92 NSCLC = tested on: HOP-92 NSCLC
HCT-116 colon = tested on: HCT-116 colon
KM12 colon = tested on: KM12 colon
SW-620 colon = tested on: SW-620 colon
T-47D breast = tested on: T-47D breast
OVCAR-5 ovarian = tested on: OVCAR-5 ovarian
SK-OV-3 ovarian = tested on: SK-OV-3 ovarian
HS 578T breast = tested on: HS 578T breast
RPMI-8226 leukemia = tested on: RPMI-8226 leukemia
M14 melanoma = tested on: M14 melanoma
SN12C renal = tested on: SN12C renal

CCCCCCCNc1nc(C(=O)OCC)ncc1-c1ccc(C(F)(F)F)cc1
GI50 (HCT-15 colon): 33.2 µM | TGI (HCT-15 colon): > 100 µM | GI50 (CAKI-1 renal): 38.2 µM | TGI (CAKI-1 renal): > 100 µM | GI50 (NCI-H226 lung): 30.5 µM | TGI (NCI-H226 lung): > 100 µM | GI50 (DU-145 prostate): 46.1 µM | TGI (DU-145 prostate): > 100 µM | GI50 (MDA-MB-231 breast): 33.3 µM | TGI (MDA-MB-231 breast): > 100 µM | GI50 (SF-295 CNS): 26.4 µM | TGI (SF-295 CNS): > 100 µM | GI50 (SK-MEL-2 melanoma): 26.6 µM | TGI (SK-MEL-2 melanoma): 66.7 µM | GI50 (RXF 393 renal): 19 µM | TGI (RXF 393 renal): 71.1 µM | GI50 (MCF7 breast): 28.1 µM | TGI (MCF7 breast): > 100 µM | GI50 (U251 CNS): 34.1 µM | TGI (U251 CNS): > 100 µM | GI50 (SNB-19 CNS): 33.4 µM | TGI (SNB-19 CNS): > 100 µM | GI50 (OVCAR-4 ovarian): 13.8 µM | TGI (OVCAR-4 ovarian): > 100 µM | GI50 (NCI-H522 lung): 31.3 µM | TGI (NCI-H522 lung): > 100 µM | GI50 (PC-3 prostate): 26.6 µM | TGI (PC-3 prostate): > 100 µM | GI50 (OVCAR-3 ovarian): 32.6 µM | TGI (OVCAR-3 ovarian): > 100 µM | GI50 (NCI/ADR-RES ovarian): 34.5 µM | TGI (NCI/ADR-RES ovarian): > 100 µM | GI50 (HT29 colon): 41.5 µM | TGI (HT29 colon): > 100 µM | GI50 (MDA-MB-435): 32.1 µM | TGI (MDA-MB-435): > 100 µM | GI50 (A498 renal): 16 µM | TGI (A498 renal): > 100 µM | GI50 (HL-60(TB) leukemia): 30.4 µM | TGI (HL-60(TB) leukemia): 88.8 µM | GI50 (LOX IMVI melanoma): 40.9 µM | TGI (LOX IMVI melanoma): > 100 µM | GI50 (MOLT-4 leukemia): 34.4 µM | TGI (MOLT-4 leukemia): 96.2 µM | GI50 (K-562 leukemia): 36.8 µM | TGI (K-562 leukemia): > 100 µM | GI50 (TK-10 renal): 51.2 µM | TGI (TK-10 renal): > 100 µM | GI50 (SF-268 CNS): 48.2 µM | TGI (SF-268 CNS): > 100 µM | GI50 (NCI-H460 lung): 14.7 µM | TGI (NCI-H460 lung): 32.7 µM | GI50 (HCC-2998 colon): 41.5 µM | TGI (HCC-2998 colon): > 100 µM | GI50 (BT-549 breast): 29.1 µM | TGI (BT-549 breast): 97.7 µM | GI50 (SR leukemia): 35.5 µM | TGI (SR leukemia): > 100 µM | GI50 (COLO 205 colon): 26.8 µM | TGI (COLO 205 colon): 88.1 µM | GI50 (NCI-H23 lung): 42.2 µM | TGI (NCI-H23 lung): > 100 µM | GI50 (HOP-62 NSCLC): 55.7 µM | TGI (HOP-62 NSCLC): > 100 µM | GI50 (ACHN renal): 32 µM | TGI (ACHN renal): > 100 µM | GI50 (CCRF-CEM leukemia): 29.5 µM | TGI (CCRF-CEM leukemia): > 100 µM | GI50 (OVCAR-8 ovarian): 40.2 µM | TGI (OVCAR-8 ovarian): > 100 µM | GI50 (SNB-75 CNS): 41.7 µM | TGI (SNB-75 CNS): > 100 µM | GI50 (UACC-62 melanoma): 25.2 µM | TGI (UACC-62 melanoma): > 100 µM | GI50 (A549 NSCLC): > 100 µM | TGI (A549 NSCLC): > 100 µM | GI50 (SK-MEL-28 melanoma): 66.2 µM | TGI (SK-MEL-28 melanoma): > 100 µM | GI50 (SK-MEL-5 melanoma): 20.6 µM | TGI (SK-MEL-5 melanoma): 51.9 µM | GI50 (MALME-3M melanoma): 41.8 µM | TGI (MALME-3M melanoma): > 100 µM | GI50 (786-0 renal): 39.3 µM | TGI (786-0 renal): > 100 µM | GI50 (UO-31 renal): 16.4 µM | TGI (UO-31 renal): 77.1 µM | GI50 (IGROV1 ovarian): 24.7 µM | TGI (IGROV1 ovarian): 70.9 µM | GI50 (UACC-257 melanoma): 26.6 µM | TGI (UACC-257 melanoma): 75.6 µM | GI50 (HOP-92 NSCLC): 24.8 µM | TGI (HOP-92 NSCLC): > 100 µM | GI50 (HCT-116 colon): 32 µM | TGI (HCT-116 colon): > 100 µM | GI50 (KM12 colon): 33.6 µM | TGI (KM12 colon): > 100 µM | GI50 (SW-620 colon): 41.5 µM | TGI (SW-620 colon): > 100 µM | GI50 (T-47D breast): 28.1 µM | TGI (T-47D breast): > 100 µM | GI50 (OVCAR-5 ovarian): > 100 µM | TGI (OVCAR-5 ovarian): > 100 µM | GI50 (SK-OV-3 ovarian): 39.1 µM | TGI (SK-OV-3 ovarian): > 100 µM | GI50 (HS 578T breast): 46.6 µM | TGI (HS 578T breast): > 100 µM | GI50 (RPMI-8226 leukemia): 17.8 µM | TGI (RPMI-8226 leukemia): 66.9 µM | GI50 (M14 melanoma): 35.8 µM | TGI (M14 melanoma): > 100 µM | GI50 (SN12C renal): 33.8 µM | TGI (SN12C renal): > 100 µM
